Source: US20200383327A1, “METHOD OF IMPROVING PLANT PERFORMANCE” (The State of Israel, Ministry of Agriculture & Rural …, priority 2018, published 2020)

Key:
Format in all cases: in vivo
Anthracnose = Anthracnose incidence on harvested mango after orchard flowering spray; details: application during orchard flowering; stored at ambient temperature for 12 days; FIG. 23B
From the text: (§1) FIGS. 23A-C: Effect of flowering application on disease incidence. Avocado and Mango cv. ‘Kent’ orchards were sprayed with fungicide (Pyrimethanil+Fludioxonil) or with phenylalanine during flowering. (FIG. 23A). Powdery Mildew incidence (percentage) per inflorescence in mango orchard. (FIG. 23B). Anthracnose incidence (percentage) on harvested mango stored at ambient temperature for 12 days. (FIG. 23CB). Anthracnose incidence (percentage) on harvested avocado stored at ambient temperature for 14 days.
(§2) Flowering is one of the more susceptible organs of the tree. Pathogenic fungi can penetrate during flowering and either infect the flower (e.g., powdery mildew) or endophytically colonize the stem and the fruit without causing any visible symptoms. Those fungi (e.g. Colletotrichum and Lasiodiplodia) become active during abiotic stress or during fruit ripening and cause fruit stem-end rot and anthracnose.

[1] = Strawberry fruit decay after pre-harvest treatment; details: 1-4 mM solution 3 weeks pre-harvest, FIG. 18
Experimental: FIG. 18 is a graph showing the effect of Phe solution on fruit pre-harvest decay. […] Decay was monitored and documented over a period of 12 days.
Strawberry plants were treated with 1-4 mM solution 3 weeks pre-harvest.

Tuta absoluta = assay: Tomato leaf miner damage on tomato plants, natural infestation in greenhouse
Experimental: FIGS. 3A-3E are images and bar graphs showing the effect of 4 mM of phenylalanine applied by drenching or spraying on the severity of […] in tomato, 13 days post treatment. FIG. 3A—an image showing the damage caused by the tomato leaf miner, the insect moth Tuta absoluta on tomato leaflet. FIG. 3B—a vertical bar graph showing severity of damage of Tuta absoluta on tomato leaves treated with drench or spray of 4 mM solution phenylalanine. Disease was evaluated on a 0-100% severity of symptoms coverage and calculation of area under disease progress curve (AUDPC) 13 days after treatment. […] Symptoms incidence per plant was evaluated 30 days after treatment. […] FIG. 3C—a vertical bar graph showing the effect of 4 mM Phe solution on the incidence of tomato leaf miner on tomato plants. The Phe solution was applied by spraying and by drench on the tomato plants at 3 days before and 4 hours before incubation in the greenhouse. Infection was natural. FIG. 3D—a vertical bar graph showing the effect of 4 mM Phe solution on the incidence of tomato leaf miner on tomato plants. The Phe solution was applied by spraying and by drench on the tomato plants at 3 days before and 4 hours before incubation in the greenhouse. Infection was natural. Symptoms incidences per plant at large size and at smaller size (up to 1 cm) were evaluated 30 days after treatment. […] FIG. 3E—a vertical bar graph showing the effect of 4 mM Phe solution on the rate of tomato leaf miner symptoms on tomato plants. The Phe solution was applied by spraying and by drench on the tomato plants at 3 days before and 4 hours before incubation in the greenhouse. Infection was natural. Symptoms incidences per plant at large size and at smaller size (up to 1 cm) were evaluated 30 days after treatment and the percent of large symptoms was calculated.
Tomato plants were grown in pots in a nonheated greenhouse where temperatures were 17-32° C. […] Damage of the pest was evaluated according to a 0-100% severity scale where 0=no symptoms followed by a calculation of area under disease progress curve (AUDPC) 13 days after treatment.

[2] = Mango fruit decay in cold storage after post-harvest treatment
Experimental: FIGS. 19A-19G are images and graphs showing the effect of Phe solution on fruit post-harvest rotting under cold temperature resistance. (19A-19B) are images showing post-harvest control and treated mango fruits, respectively, stored in 7° C. […] (19C-19D) are vertical bar graphs showing indices of spots (19C) and pitting (19D) of mango fruits infected by Colletotrichum or Lasiodiplodia under 7° C. (19E-19G) are vertical bar graph showing […] decay was shown at 7° C., and side decay and total decay were shown at 7° C. and 10° C.
Mango fruits were treated with Phe solution post-harvest. Fruits were stored in either 7° C. or 10° C., and decay was inspected and documented. Post-harvest treatment as described hereinabove reduced stem decay, side decay, and total decay (FIGS. 19E-19G). […] Fruits were both treated with AAA and infested with […] post-harvest. […] (FIGS. 19C-19D).

Powdery Mildew = assay: Powdery mildew incidence per inflorescence in mango orchard sprayed during flowering; details: application during orchard flowering; FIG. 23A
From the text: as §1, §2

Tetranychus urticae = assay: Red spider mite damage on tomato plants, natural infestation in greenhouse; details: 4 mM Phe solution, drench or spray, each treatment; AUDPC during 30 days; FIG. 9
Experimental: FIG. 9 is a bar graph showing the effect of 4 mM Phe solution on the severity of Tetranychus urticae red spider mite on leaves of tomato plants. The Phe solution was applied by spraying and by drench on the tomato plants at 3 days before and 4 hours before incubation in the greenhouse. Symptoms severity was evaluated on a scale of 0-100% severity of symptoms coverage during 30 days after treatment and it is expressed as the area under disease progress curve (AUDPC).
The red spider mite Tetranychus urticae Koch, (also two-spotted spider mite) occurred naturally on the treated tomato plants. The plants were kept in a greenhouse with 18-28° C. Typical scratching symptoms severity were evaluated on each plant; 0=no infection (all leaves are symptomless) and 100=leaves were fully covered by symptoms.

Lasiodiplodia theobromae = assay: Postharvest decay of 'Shelly' mango fruit, wound inoculated; details: for Inhibition of pathogenic activity: postharvest, mango
Experimental: (§3) FIGS. 4A-4B are graphs showing induced resistance of harvested Mango fruit to fungal pathogens. FIG. […] A day later the treated or untreated fruits were wound inoculated on four spots in each fruit with 7 μl of Lasiodiplodia theobromas conidia suspension (10^6 conidia/ml) and the decay area was monitored for 7 days post inoculation (dpi). FIG. […] A day later the treated or untreated fruits were wound inoculated on four spots in each fruit with 7 μl of Colletotrichum gloeosporioides conidia suspension (10^6 conidia/ml) and the decay area was monitored for 14 days post inoculation (dpi).

[3] = tested on: Colletotrichum gloeosporioides; assay: as above; details: for Inhibition of pathogenic activity: postharvest, mango
Experimental: as §3

[4] = postharvest treatment of 'Shelly' mango, FIG. 4

In the case of `N[C@@H](Cc1ccccc1)C(=O)O` [Phe, Phenylalanine], the “Postharvest anthracnose in mango” value (Anthracnose) is reported as “reduced”, the “Amount of rotten fruits (decay incidence)” value [1] is reported as “substantially reduced amount of rotten fruits” and the “Severity of damage of the moth Tuta absoluta leaf miner on tomato leaves” value (Tuta absoluta; 4 mM Phe solution, drench or spray, each treatment, FIG. 3C) is reported as “significantly suppressed”. The “Leaf miner symptoms, small (up to 1 cm long) and large” value (Tuta absoluta; 4 mM Phe spray and Phe drench, 30 days after treatment, FIG. 3D) was “suppressed”, the “Rate (in %) of larger leaf miner symptoms” value (Tuta absoluta; 4 mM Phe spray and drench, 30 days after treatment, FIG. 3E) was “reduced” and the Stem decay ([2]; post-harvest Phe solution, mango stored at 7° C. or 10° C., FIG. 19E) was “reduced”. The Side decay ([2]; post-harvest Phe solution, mango stored at 7° C. or 10° C., FIG. 19F) was “reduced”, the Total decay ([2]; post-harvest Phe solution, mango stored at 7° C. or 10° C., FIG. 19G) was “reduced” and the “Black spots on fruits, control versus treated” value ([2]; post-harvest mango fruits stored in 7° C., FIGS. 19A-19B) was “Control fruits were shown to have substantially more black spots”. For the same compound, the Mango powdery mildew (Powdery Mildew) was “reduced”, the “Severity of damage of the Tetranychus urticae red spider mite on tomato leaves” value (Tetranychus urticae) was “significantly suppressed” and the “Inhibition of pathogenic activity” value (Lasiodiplodia theobromae; 2 mM phenylalanine) was “did not suffice”. For the same compound, the “Inhibition of pathogenic activity” value (Lasiodiplodia theobromae; 4 mM phenylalanine) was “substantially inhibited the pathogenic activity”, the “Decay severity in comparison to the untreated control fruits” value (Lasiodiplodia theobromae; [4]) was “reduced the decay severity” and the “Inhibition of pathogenic activity” value ([3]; 2 mM phenylalanine) was “did not suffice”. For the same compound, the “Inhibition of pathogenic activity” value ([3]; 4 mM phenylalanine) was “substantially inhibited the pathogenic activity” and the “Decay severity in comparison to the untreated control fruits” value [3, 4] was “reduced the decay severity”.
